Measured values reported in patent publication US9522128B2 (FUNDACION PARA LA INVESTIGACION BIOMEDICA DEL HOSPITAL …, priority 2008, dated 2016).
Where two headings read alike, the source gives them in different places.

Columns and labels:
[1] = tested on: primary cultures of proximal tubular cells; assay: Mitochondrial activity using MTT reduction; type: cell-based, pig; details: presence of cilastatin with nephrotoxics
Description: Mitochondrial functionality of PTCs was measured by metabolic reduction of 3-(4,5-dimethylthiazole-2-yl)-2,5-diphenyltetrazole bromide (MTT, supplied by Calbiochem), performed by the mitochondrial enzyme succinate dehydrogenase, yielding a blue-colored compound (formazan). […] MTT was subsequently added to each well at a final concentration of 0.5 mg/mL and incubated for 3 hours at 37° C. in the dark. Once this incubation was completed, 100 μL of lysis buffer (20% SDS in 50% N,N-dimethylformamide, pH 4.7) were added, and the plate was incubated overnight at 37° C. in the dark. Absorbance was measured at 595 nm on the following day.
Percent viability was calculated as follows:
Real time MTT reduction was measured in semiconfluent proximal cells seeded in 24-well plates (16 mm in diameter) in which culture medium was replaced by MTT at 0.5 mg/mL of final concentration in PBS. This reduction was determined by measuring absorbance at 595 nm with an Olympus IX70 inverted fluorescence microscope coupled to a photomultiplier controlled from a SLM Aminco 2000 fluorimeter. […] In this test, as in the previous ones, vancomycin was directly added to the plate during measurement of absorbance. […]

[2] = tested on: primary cultures of proximal tubular cells; details: 24 hours, with cilastatin; vancomycin, cyclosporin, tacrolimus, acetaminophen, cisplatin, gentamicin
Description: Cells were subsequently detached, and the final volume obtained was recorded. Cell lysate was subjected to a thermal shock, for which it was first heated at 100° C. for 5 min and then placed on ice. Each sample was subjected to sudden decompression. Samples were centrifuged at 12000 rpm for 5 min, and supernatant was collected.
For this purpose, PTCs were incubated with the different nephrotoxics under study, and the cumulative intracellular concentration of toxics in PTCs was quantified, in accordance with the procedure described at the start of the Examples.

[3] = tested on: CD3+ lymphocytes (human T cells)
Description: The sample was centrifuged at 120 g and was resuspended in 750 μL of RPMI medium (in the absence of FCS: fetal calf serum) to quantify the number of cells available using trypan blue. One hundred thousand cells per point were distributed.
Incubation was performed for 4 hours at 37° C. Cells were centrifuged for 6 minutes at 1200 rpm. The precipitate was resuspended in 100 μL of buffer (10 mmol/L HEPES, 150 mmol/L NaCl, 5 mmol/L KCl, 1 mmol/L Mg Cl2, 1.8 mmol/L CaCl2) and 5 μL of annexin-V. It was incubated in the dark for 10 minutes.
Intensity of green fluorescence of cells was quantified as displacement in the logarithmic scale from control (cells growing in 10% FCS) versus the number of cells analyzed. Cell debris was excluded from the analysis.

Wistar rats [4] = assay: Preliminary in vivo study of cilastatin nephroprotection against acute toxic renal failure caused by cisplatin; design: species or system rat; details: cisplatin 5 mg/kg plus cilastatin 75 or 150 mg/kg every 12 hours intraperitoneal
Description: Five animals, each subjected to a different treatment regimen, were preliminarily used.
At the time of killing, animals were weighed and anesthetized with ketamine (10 mg/kg) and diazepam (4 mg/kg). Once anesthetized, blood was drawn by cannulation of the abdominal aorta at the bifurcation level. This blood was kept for 30 minutes at 37° C. and subsequently for 1 hour at 4° C., after which it was centrifuged at 2000 rpm for 15 minutes at 4° C. This allowed for separation of blood serum, which was stored at −80° C. until use.

Wistar rats [5] = assay: Extended in vivo study of cilastatin nephroprotection against acute toxic renal failure caused by cisplatin
Excerpt: A total of 28 animals were used, which were randomized into 4 groups with a sample size n=6-8 animals per group.
Throughout the period, animals were given free access to both water and feed (standard diet) in a controlled light, temperature, and humidity environment. One day before killing, animals were introduced into metabolic cages with free access to feed and water ad libitum to collect 24-hour urine, in order to quantify urine output and protein concentration.
At the time of killing, animals (previously weighed) were anesthetized in the experimental operating room with ketamine (10 mg/kg) and diazepam (4 mg/kg) and were drawn blood by cannulation of the abdominal aorta at the bifurcation level. Blood was first incubated for 30 minutes at 37° C., and then for one hour at 4° C. Subsequent centrifugation at 2000 rpm for 15 minutes at 4° C. allowed for obtaining blood serum, which was frozen at −80° C. until use. […] Kidneys were subsequently removed, decapsulated, and kept in cold saline during their handling to minimize tissue degradation. Kidneys (right and left) were weighed and were subsequently handled similarly. […] The rest of the right kidneys, as well as left kidneys, were separated into cortex and medulla, and both samples were frozen in liquid nitrogen and stored at −80° C. until use.
Hemodynamic variables and serum and urine kidney function parameters (FIG. 14) were measured using a Dimension RxL autoanalyzer from Dade-Behring according to manufacturer instructions.
This time, urine samples were taken before killing, as indicated in the section describing the procedure.

[6] = Excerpt: No data have been reported for humans. […] The resulting plot is shown in FIG. 14 (diamonds: rabbit data; triangles: rat data; blank squares: data from pig experiments; filled squares including a white point: data from the summary of product characteristics for humans).
[7] = tested on: primary cultures of proximal tubular cells; details: 48 h, 11 nephrotoxics
[8] = tested on: primary cultures of proximal tubular cells; details: cilastatin added to cultures with nephrotoxics, 24 hours
Description: Cells shed to the supernatant were collected by direct aspiration using an automatic pipet, and adherent cells were separated from the culture plate by trypsinization.
The PTCs thus obtained were separately fixed and permeabilized with 70% ethanol and stored at −20° C. After removing ethanol, cells were washed two times with PBS.
The count was performed in a FACScan cytometer (Beckton Dickinson) equipped with a simple argon ion laser. Windows were fixed based on the characteristics of FSC (size), SSC (complexity), FL2-H (height), FL2-A (area), and FL2-W (width). The latter two were used to rule out cell doublets. Analysis was performed using WinMDI 2.9 software.

[9] = tested on: primary cultures of proximal tubular cells; details: co-incubation with cilastatin; 24 hours aggression (12 hours for cisplatin), long-term survival 7 days
[10] = tested on: renal degradation of imipenem; details: with cilastatin; cited from earlier work
tubular endothelium = details: dose of 1 g/kg/day; Sack 1985; cited from earlier work
DHP-I = DHP-I (Homo sapiens, UniProt P16444); details: Koller 1985, Campbell 1988; cited from earlier work
DHP-I, sequence (P16444 17-385): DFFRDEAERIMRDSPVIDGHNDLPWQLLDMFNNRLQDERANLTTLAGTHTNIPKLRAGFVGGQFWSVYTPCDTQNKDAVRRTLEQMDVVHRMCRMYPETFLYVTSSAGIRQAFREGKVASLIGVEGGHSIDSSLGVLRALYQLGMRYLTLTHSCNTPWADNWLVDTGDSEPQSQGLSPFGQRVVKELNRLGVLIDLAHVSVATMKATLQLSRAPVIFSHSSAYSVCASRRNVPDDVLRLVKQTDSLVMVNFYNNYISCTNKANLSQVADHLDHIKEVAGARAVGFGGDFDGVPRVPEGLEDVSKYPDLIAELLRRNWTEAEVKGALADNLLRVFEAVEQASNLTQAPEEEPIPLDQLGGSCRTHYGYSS

humans = details: period immediately subsequent to transplant; cited from earlier work
[11] = tested on: cultures of cells of the proximal tubular epithelium; assay: Scanning electron microscopy of cell morphology; details: 11 days; cyclosporin A 1 μg/mL without or with cilastatin 200 μg/mL
[12] = tested on: primary cultures of proximal tubular cells (PTCs); assay: Cell growth dynamics in primary culture of proximal tubular cells
[13] = cited from earlier work; for nature (neutral, anionic, apolar) at physiological pH: 7 or close to 7
[14] = tested on: cells of pig proximal tubular epithelium in primary culture
rabbits = details: rabbit, in vivo; cited from earlier work

What does the source list for `CC1(C)C[C@@H]1C(=O)N/C(=C\CCCCSC[C@H](N)C(=O)O)C(=O)[O-].[Na+]` (relative stereo) [cilastatin, monosodium salt of [R—[R*,S*—(Z)]]-7-[(2-amino-2-carboxyethyl)thio]-2-[[(2,2-dimetylcyclopropyl)carbonyl]amino]-2-heptenoic acid]?
restoration of mitochondrial electronic transfer capacity [1]: totally or partially restores; intracellular accumulation of nephrotoxics [2]: interferes with intracellular administration of all nephrotoxics tested; protective effect on cyclosporin A induced T cell death ([3]; cilastatin 200 μg/mL): absence of a protective effect; weight loss or changes in plasma creatinine (Wistar rats [4]): no significant weight loss or changes in plasma creatinine; increase of mean weight (Wistar rats [5]; cilastatin 75 mg/kg every 12 hours without cisplatin): approximately 14 grams; proteinuria and urinary osmolality (Wistar rats [5]; cisplatin 5 mg/kg, cilastatin 75 mg/kg every 12 hours intraperitoneal): completely reversed the values to normal levels; FINAL WEIGHT (Wistar rats [5]; end of the extended study (5 days), mean ± standard error): 273 ± 7; plasma level up to which the dose/plasma level relationship is linear ([6]; all species): around 800 mg/L; minimum effective dose ([6]; estimated): 10 mg/kg body weight; estimated minimum nephroprotective dose in humans ([6]; mean value for a human adult): 750 mg/day; induction of apoptosis (nucleosomes) on co-incubation of nephrotoxics plus cilastatin [7]: induction of apoptosis ceases or is significantly reduced; number of dead cells (sloughed to supernatant, anoikis) [8]: reduced in all cases the number of dead cells; cell growth / colony-forming units after nephrotoxic aggression (crystal violet) [9]: totally or partially restores cell growth; urinary excretion rate of imipenem [10]: up to 70 % of the initial imipenem dose administered; sign of renal toxicity (tubular endothelium): could cause sloughing of tubular endothelium; conversion of leukotriene D4 to leukotriene E4 (DHP-I): strongly inhibited; nephrotoxicity induced by CsA (humans): may effectively counteract; cell morphology by scanning electron microscopy [11]: these changes do not usually occur; effect of co-incubation with cilastatin on the effect of nephrotoxics on cell growth ([12]; cilastatin 200 μg/mL with cyclosporin A or tacrolimus): partially prevents; effect upon growth dynamics, cell confluence, or monolayer morphology ([12]; increasing cilastatin doses for 14 days, up to almost 10 times plasma concentrations reached in vivo): No significant effect; day of culture from which cell growth recovers with cilastatin ([12]; with cyclosporin): ≥ 11 days; time from which cell growth recovers with cilastatin ([12]; with tacrolimus (FK-506), decrease from day 7): from the same time

With `CC(=O)Nc1ccc(O)cc1` [Acetaminophen, N-(4-hydroxyphenyl)ethanamide] as the compound, how does the “SOLUBILITY IN WATER” value ([13]; in words) read?
The value was “moderately soluble in”.

What about the “SOLUBILITY IN ORGANIC MEDIA” value ([13]; in words, in ethanol and acetone) of the same compound?
The value was “soluble in ethanol and acetone”.

What about the “SOLUBILITY IN ORGANIC MEDIA” value ([13]; in words, in serum) of the same compound?
The value was “insoluble in serum”.

And the “nature (neutral, anionic, apolar) at physiological pH” value (shortened to “nature … at physiological pH”) [13]?
Its value is “neutral”.

With `C[C@@H]1[C@H](O)[C@@H](C)/C=C/C=C/C=C/C=C/C=C/C=C/C=C/[C@H](O[C@@H]2O[C@H](C)[C@@H](O)[C@H](N)[C@@H]2O)C[C@@H]2O[C@](O)(C[C@@H](O)C[C@@H](O)[C@H](O)CC[C@@H](O)C[C@@H](O)CC(=O)O[C@H]1C)C[C@H](O)[C@H]2C(=O)O` [Amphotericin B] as the compound, how does the “SOLUBILITY IN ORGANIC MEDIA” value ([13]; DMF + HCl) read?
Its value is “DMF + HCl (60-80 mg/mL)”.

What about the “SOLUBILITY IN ORGANIC MEDIA” value ([13]; DMF) of the same compound?
Its value is “soluble in DMF (2-4 mg/mL),”.

What about the “SOLUBILITY IN ORGANIC MEDIA” value ([13]; DMSO) of the same compound?
Its value is “DMSO (30-40 mg/mL)”.

And the “nature … at physiological pH” value [13]?
The value was “anionic”.

And the “SOLUBILITY IN WATER” value ([13]; water at pH 2 or pH 11)?
The value was 11 (0.1 mg/mL).

With `ClC(Cl)Cl` [Chloroform, CHCl3] as the compound, how does the “nature … at physiological pH” value [13] read?
The value was “apolar”.

With `N.N.[Cl][Pt][Cl]` [Cisplatin, cis-diaminodychloroplatin II] as the compound, how does the “nature … at physiological pH” value [13] read?
The value was “neutral”.

Which results are given for `O=C(O)P(=O)(O)O` [Foscarnet, phosphonoformic acid]?
SOLUBILITY IN ORGANIC MEDIA ([13]; in words): insoluble; SOLUBILITY IN WATER ([13]; in words): soluble in water; nature (neutral, anionic, apolar) at physiological pH [13]: anionic

What does the source list for `C[C@H](O)C(=O)Nc1c(I)c(C(=O)NC(CO)CO)c(I)c(C(=O)NC(CO)CO)c1I` [Iopamidol]?
SOLUBILITY IN ORGANIC MEDIA ([13]; in words): soluble in methanol insoluble; SOLUBILITY IN WATER ([13]; in words): soluble in water; nature (neutral, anionic, apolar) at physiological pH [13]: anionic

Which results are given for `OC[C@@H](O)[C@@H](O)[C@H](O)[C@H](O)CO` [Mannitol]?
SOLUBILITY IN WATER [13]: (1 g/5.5 mL); SOLUBILITY IN WATER ([13]; in words): soluble in water; nature (neutral, anionic, apolar) at physiological pH [13]: anionic

With `C=CC[C@@H]1/C=C(\C)C[C@H](C)C[C@H](OC)[C@H]2O[C@@](O)(C(=O)C(=O)N3CCCC[C@H]3C(=O)O[C@H](/C(C)=C/[C@@H]3CC[C@@H](O)[C@H](OC)C3)[C@H](C)[C@@H](O)CC1=O)[C@H](C)C[C@@H]2OC.O` [Tacrolimus] as the compound, how does the “SOLUBILITY IN ORGANIC MEDIA” value ([13]; in words) read?
The value was “high”.

What about the “SOLUBILITY IN WATER” value ([13]; in words) of the same compound?
Its value is “insoluble”.

What about the “nature … at physiological pH” value [13] of the same compound?
The value was “apolar”.

And the “cell growth in the presence of the nephrotoxic” value ([12]; from the time of seeding, cyclosporin A 1 or 10 μg/mL, tacrolimus 50 ng/mL)?
The value was “dose-dependently reduced”.

And the “day of culture from which cell growth is significantly decreased compared to control” value ([12]; post hoc analysis, cyclosporin 1 μg/mL and 10 μg/mL, tacrolimus (FK-506))?
The value was at least 7 days.

Which “SOLUBILITY IN WATER” value ([13]; in words) does the source give for `CN[C@H](CC(C)C)C(=O)NC1C(=O)N[C@@H](CC(N)=O)C(=O)N[C@H]2C(=O)N[C@H]3C(=O)N[C@H](C(=O)N[C@@H](C(=O)O)c4cc(O)cc(O)c4-c4cc3ccc4O)[C@H](O)c3ccc(c(Cl)c3)Oc3cc2cc(c3OC2O[C@@H](CO)[C@@H](O)[C@H](O)[C@@H]2O[C@@H]2C[C@](C)(N)[C@H](O)[C@@H](C)O2)Oc2ccc(cc2Cl)[C@H]1O` (stereo partly shown) [Vancomycin] here?
The value was “water-soluble”.

And the “SOLUBILITY IN WATER” value ([13]; in words, listed as VANCOMYCIN)?
Its value is “high”.

For `CCCCC[C@@H](O)[C@H]1C(=O)O[C@H](C)[C@@H](O)/C=C/C=C/C=C/C=C/C=C(\C)[C@@H](O)C[C@H](O)C[C@H](O)C[C@H](O)C[C@H](O)C[C@H](O)C[C@@H]1O` [filipin], which cell death [14] is on record?
Its cell death is “causes cell death in a short time”.

And the “internalization of fluorescent toxin B labeled caveolae from cell membrane to Golgi apparatus” value ([14]; […], cilastatin 200 μg/mL or filipin 50 μg/mL, pre-incubated 20 minutes)?
The value was “prevents their internalization”.

For `C[C@@H](O)[C@H]1C(=O)N2C(C(=O)O)=C(SCCN=CN)C[C@H]12` [imipenem], which tubular toxicity (rabbits) is on record?
Its tubular toxicity is “may cause tubular toxicity”.

For Cyclosporin A, which “percent cell death of human T cells” value ([3]; cyclosporin A at different doses) is on record?
The value was “dose-response effect of the lethal effect”.

And the “cell morphology by scanning electron microscopy” value [11]?
The value was “causes cytosolic condensation, cell rupture, and monolayer disruption”.

With Gentamicin as the compound, how does the “nature … at physiological pH” value [13] read?
Its value is “neutral”.
